Test results: patent US4590275A, “Benzoheterazolo[3,2-a]quinolinium salts” (Commonwealth of Puerto Rico, priority 1983, dated 1986)
Where two headings read alike, the source gives them in different places.

Experiments:
KB cells = assay: Cytotoxic activity in vitro, KB cells; type: cell-based; settings: for IC50: Homo sapiens, KB cells, average of at least three experiments, read-out: ED50 KB
Experimental: (§1) It appears that structural variations such as replacement of sulfur for oxygen or selenium as well as changes in the electronic nature of the substituents are critical factors in eliciting the inhibitory activity. Since in general satisfactory cytotoxic activity "in vitro" corresponds to good antitumor activity in vivo, the antitumor activity of compound Ib was assessed in mice bearing Ehrlich ascites tumor. A range of doses from 400 mg/kg to 90 mg/kg were tested, each given in a one dose basis, 24 h after tumor implantation. […] Compound Ib was also tested against P388 leukemia in mice.
(§2) HeLa-229 and KB cells were used for in vitro tissue culture cytotoxicity experiments. Cells were grown in monolayer culture in Difco TC Minimal Medium Eagle and supplemented with 10% foetal calf serum (Flow). Subculturing was performed every 6-7 days. Ehrlich ascites tumor was maintained in serial passages at two week intervals in Albino Swiss mice by intraperitoneal implant.
(§3) The method was essentially as described in Cancer Chemotherapy Rep. Part 3, 3, 2 (1972); NCl Monograph 45, p. 150. Drugs were always suspended in sterile 0.5% carboxymethyl cellulose. As a positive control 1 μM 6-mercaptopurine was always included.

HeLa cells = assay: Cytotoxic activity in vitro, HeLa cells; type: cell-based
Experimental: as §1, §2, §3

Ehrlich ascites tumor = assay: Antitumor activity against Ehrlich ascites tumor in mice; type: in vivo, female Albino Swiss mice; settings: for death of mice: one dose; for T/C: Day 12
Experimental: as §1, §2
(§4) The mice used through these experiments were female Albino Swiss mice.
(§5) Each group consisted of five to six weight matched animals. To begin the antitumor experiment 1×10^6 viable cells (trypan blue exclusion test) were injected ip. Test compounds were suspended in 0.9% (w/v) NaCl solution containing 0.10% (v/v) Tween 80 at the higher concentration. Lower doses were obtained by serial dilutions with 0.9% NaCl and injected ip in a volume of 0.5 ml in a single dose 24 h after implantation of the tumor. Animal body weights were recorded daily during the next 30 days and the survival was followed for the next 60 days. The P388 leukemia assay was performed according to standard protocol, Cancer Chemotherapy Rep.; Part 3, 3, 2 (1972); NCl Monograph 45, p. 150.
(§6) ^a Average of three tests except when noted.
(§7) ^b and ^c Assay performed according to procols of NCl.
(§8) ^d Treatment given ip on Day 1.
^f Toxicity = LTS number of toxic deaths/number of treated mice.
^g LTS = long term survivors (60 days)/number of treated mice.

P388 leukemia = assay: Antitumor activity against P388 leukemia in mice; type: in vivo
Experimental: as §1, §4, §5, §6, §7
5Fluorouracil was used as control (200 mg/kg/ing).
as §8
^h Median survival time of treated mice/median survival of control
× 100. Values of T/C 120 denote activity.

[1] = system: Herpes simplex virus (HSV-1) infected KB cells; assay: Protein synthesis in HSV-1 infected and mock-infected KB cells; type: cell-based; settings: for inhibition of translation (protein synthesis): infected vs mock-infected KB cells
Experimental: In addition, herpes simplex virus (HSV-1) infected KB cells and KB mock-infected cells were assayed for protein synthesis in the presence of Ib at different concentrations.
Screening of antibiotic action on protein synthesis in virus infected cells.
Herpes simplex virus (HSV-1) infected KB cells and KB mock-infected cells were assayed for protein synthesis in the presence of nitrobenzothiazolo quinolium perchlorate at different concentrations. After infection or mock-infection nitrobenzothiazolo quinolium perchlorate was added at the concentration of 100, 50, 25, 5 and 1.5 μg/ml and incubated for 48 hours.
After the incubation time, protein synthesis was measured by addition of 0.1 μCi^35 S methionine ([…]; 5.4 mCl/ml) and incubated for 1 hour. After incubation the medium was removed, the reaction stopped and the radioactivity estimated in an Intertechnique liquid scintillation spectrometer.
The value 100% of control represents 72,484 cpm (mock-infected KB cells).

L1210 murine leukemia = settings: cited from earlier work
P388 murine leukemia = settings: cited from earlier work
DNA synthesis = settings: probably by interacting with A:T base pairs; cited from earlier work
[2] = Ehrlich ascites, 90 mg/kg ip on Day 1, two test results
[3] = Ehrlich ascites, 100 mg/kg ip on Day 1, two test results
[4] = Ehrlich ascites, 150 mg/kg ip on Day 1
[5] = Ehrlich ascites, 200 mg/kg ip on Day 1
[6] = Ehrlich ascites, 250 mg/kg ip on Day 1
[7] = Ehrlich ascites, 400 mg/kg ip on Day 1

With `O=[N+]([O-])c1ccc2c(ccc3sc4ccccc4[n+]32)c1.[O-][Cl+3]([O-])([O-])[O-]` [Ib, 3-Nitrobenzothiazolo(3,2-a)quinolinium Perchlorate] the IC50 (KB cells) was 0.61 µg/mL, the “cytotoxicity, ranking among compounds I” value (KB cells; KB screen) was “highest cytotoxicity” and the “cytotoxicity, ranking among compounds I” value (HeLa cells; HeLa screen) was “highest cytotoxicity”. For the same molecule, the IC50 (HeLa cells; Homo sapiens, HeLa cells, average of at least three experiments, read-out: ED50 HeLa) was 0.9 µg/mL, the “death of mice” value (Ehrlich ascites tumor; 300 mg/kg) was “died within 24 h of injection” and the “death of mice” value (Ehrlich ascites tumor; 400 mg/kg) was “died within 24 h of injection”. The T/C (Ehrlich ascites tumor; [2]) was 57.3%, the “LTS, long term survivors (60 days)/number of treated mice” value (“LTS, long term survivors” for short) (Ehrlich ascites tumor; [2]) was 5/10 and the Survival (Ehrlich ascites tumor; [2]) was 3/5. The T/C (Ehrlich ascites tumor; [3]) was 35.8%, the “LTS, long term survivors” value (Ehrlich ascites tumor; [3]) was 12/12 and the Survival (Ehrlich ascites tumor; [3]) was 6/6. The “LTS, long term survivors” value (Ehrlich ascites tumor; [4]) was 15/18, the Survival (Ehrlich ascites tumor; [4]) was 6/6 and the T/C (Ehrlich ascites tumor; [4]) was -0.4%. For the same molecule, the “LTS, long term survivors” value (Ehrlich ascites tumor; [5]) was 18/18, the Survival (Ehrlich ascites tumor; [5]) was 6/6 and the T/C (Ehrlich ascites tumor; [5]) was -6.9%. The “LTS, long term survivors” value (Ehrlich ascites tumor; [6]) was 15/18, the Survival (Ehrlich ascites tumor; [6]) was 6/6 and the T/C (Ehrlich ascites tumor; [6]) was -2.5%. The Survival (Ehrlich ascites tumor; [7]) was 0/6, the “Toxicity (toxic deaths/number of treated mice)” value (Ehrlich ascites tumor; [7]) was 6/6 and the T/C value (Ehrlich ascites tumor; Ehrlich ascites, most effective dose 200 mg/kg, one dose 24 h after tumor implantation) was -6.2. The Survival (P388 leukemia; 200 mg/kg ip on Day 1) was 6/6, the “T/C (median survival time of treated mice/median survival of control × 100)” value (P388 leukemia; 200 mg/kg ip on Day 1, values of T/C 120 denote activity) was 218 and the Survival (P388 leukemia; 400 mg/kg ip on Day 1) was 0/6. The Toxicity (P388 leukemia; 400 mg/kg ip on Day 1) was 6/6, the virus yield [1] was “drastic reduction on virus yield” and the virus yield ([1]; 5×10^-4 M, 48 hours) was “drastic reduction on virus yield”. The “inhibition of translation (protein synthesis)” value ([1]; 5×10^-4 M, 48 hours) was “inhibited preferentially translation on infected cells” and the “inhibition of translation (protein synthesis)” value [1] was “inhibited preferentially translation on infected cells”.
In the case of `COc1cc2cc3c4cc(OC)c(OC)cc4cc[n+]3c(C)c2cc1OC` [Coralyne], the antitumor activity (L1210 murine leukemia) is given as “exhibits antitumor activity” and the antitumor activity (P388 murine leukemia) is given as “exhibits antitumor activity”.
With `O=[N+]([O-])c1ccc2c(ccc3[se]c4ccccc4[n+]32)c1.[O-][Cl+3]([O-])([O-])[O-]` [Il, 3-Nitrobenzoselenazolo(3,2-a)quinolinium Perchlorate] the IC50 (KB cells) was 100 µg/mL.
For `COc1cc2c(ccc3c4cc(OC)c(OC)cc4c[n+](C)c23)cc1O` [fagaronine], the antitumor activity (L1210 murine leukemia) is given as “potent antitumor activity”, the antitumor activity (P388 murine leukemia) is given as “potent antitumor activity” and the “inhibition of DNA synthesis” value (DNA synthesis) is given as “inhibit DNA synthesis”.
In the case of `COc1cc2c[n+](C)c3c4cc5c(cc4ccc3c2cc1OC)OCO5` [nitidine], the antitumor activity (L1210 murine leukemia) is listed as “potent antitumor activity”, the antitumor activity (P388 murine leukemia) is listed as “potent antitumor activity” and the “inhibition of DNA synthesis” value (DNA synthesis) is listed as “inhibit DNA synthesis”.
